Measured values from patent publication CN111743889A, “赤麻木脂素的新用途” (Shanghai Institute of Materia Medica of CAS, priority 2019, dated 2020).

Key:
Format in all cases: cell-based
[1] = system: STAT3 transcription factor [STAT3转录因子]; test: STAT3 luciferase reporter gene assay (IL-6 induced); conditions: HepG2 cells stably transfected with reporter; IL-6 10 ng/ml induced; compound 1-40 μM, added 1 h before stimulus; read 5 h after
[2] = system: STAT1 transcription factor [STAT1转录因子]; test: STAT1 luciferase reporter gene assay (IFN-γ induced); conditions: HepG2 cells stably transfected with reporter; IFN-γ 10 ng/ml induced; compound 1-40 μM, added 1 h before stimulus; read 5 h after
[3] = system: NF-κB signalling pathway [NF-κB信号通路]; test: NF-κB luciferase reporter gene assay (TNF-α induced); conditions: HEK293 cells with reporter; TNF-α 10 ng/ml induced; compound 1-40 μM, added 1 h before stimulus; read 5 h after
STAT3 = test: Western blot, STAT3 phosphorylation; conditions: IL-6 induced, 10 min; compound 1, 5, 10, 20 μM, 1 h
STAT1 = test: Western blot, STAT1 phosphorylation; conditions: IFN-γ induced, 10 min; compound 1, 5, 10, 20 μM, 1 h
JAK1 = molecular target: T1, JAK1 (Homo sapiens, UniProt P23458); test: Western blot, JAK1 phosphorylation; conditions: IL-6, IFN-γ and IFN-α induced, 10 min; compound 1, 5, 10, 20 μM, 1 h
T1 construct: 将细胞以每孔15万的量接种在24孔板内; endogenous in cells; HepG2 and HEK293 are the only lines named

JAK2 = molecular target: T2, JAK2 (Homo sapiens, UniProt O60674); test: Western blot, JAK2 phosphorylation; conditions: IL-6, IFN-γ and IFN-α induced, 10 min; compound 1, 5, 10, 20 μM, 1 h
T2 construct: 将细胞以每孔15万的量接种在24孔板内; endogenous in cells; HepG2 and HEK293 are the only lines named

TYK2 = molecular target: T3, TYK2 (Homo sapiens, UniProt P29597); test: Western blot, TYK2 phosphorylation; conditions: IL-6, IFN-γ and IFN-α induced, 10 min; compound 1, 5, 10, 20 μM, 1 h
T3 construct: 将细胞以每孔15万的量接种在24孔板内; endogenous in cells; HepG2 and HEK293 are the only lines named

PDGFRα = molecular target: T4, PDGFRα (Homo sapiens, UniProt P16234); test: Western blot, PDGFRα phosphorylation; conditions: same concentrations (1, 5, 10, 20 μM), 1 h
T4 construct: 将细胞以每孔15万的量接种在24孔板内; endogenous in cells

PDGFRβ = molecular target: T5, PDGFRβ (Homo sapiens, UniProt P09619); test: Western blot, PDGFRβ phosphorylation; conditions: same concentrations (1, 5, 10, 20 μM), 1 h
T5 construct: 将细胞以每孔15万的量接种在24孔板内; endogenous in cells

EGFR = molecular target: T6, EGFR (Homo sapiens, UniProt P00533); test: Western blot, EGFR phosphorylation; conditions: same concentrations (1, 5, 10, 20 μM), 1 h
T6 construct: 将细胞以每孔15万的量接种在24孔板内; endogenous in cells

IGF1R = molecular target: T7, IGF1R (Homo sapiens, UniProt P08069); test: Western blot, IGF1R phosphorylation; conditions: same concentrations (1, 5, 10, 20 μM), 1 h
T7 construct: 将细胞以每孔15万的量接种在24孔板内; endogenous in cells

IκBα = test: Western blot, IκBα phosphorylation; conditions: TNF-α induced, 10 min; compound 1, 5, 10, 20 μM, 1 h
IKK-α/β = test: Western blot, IKK-α/β phosphorylation; conditions: TNF-α induced, 10 min; compound 1, 5, 10, 20 μM, 1 h

T6 sequence (P00533 25-1210): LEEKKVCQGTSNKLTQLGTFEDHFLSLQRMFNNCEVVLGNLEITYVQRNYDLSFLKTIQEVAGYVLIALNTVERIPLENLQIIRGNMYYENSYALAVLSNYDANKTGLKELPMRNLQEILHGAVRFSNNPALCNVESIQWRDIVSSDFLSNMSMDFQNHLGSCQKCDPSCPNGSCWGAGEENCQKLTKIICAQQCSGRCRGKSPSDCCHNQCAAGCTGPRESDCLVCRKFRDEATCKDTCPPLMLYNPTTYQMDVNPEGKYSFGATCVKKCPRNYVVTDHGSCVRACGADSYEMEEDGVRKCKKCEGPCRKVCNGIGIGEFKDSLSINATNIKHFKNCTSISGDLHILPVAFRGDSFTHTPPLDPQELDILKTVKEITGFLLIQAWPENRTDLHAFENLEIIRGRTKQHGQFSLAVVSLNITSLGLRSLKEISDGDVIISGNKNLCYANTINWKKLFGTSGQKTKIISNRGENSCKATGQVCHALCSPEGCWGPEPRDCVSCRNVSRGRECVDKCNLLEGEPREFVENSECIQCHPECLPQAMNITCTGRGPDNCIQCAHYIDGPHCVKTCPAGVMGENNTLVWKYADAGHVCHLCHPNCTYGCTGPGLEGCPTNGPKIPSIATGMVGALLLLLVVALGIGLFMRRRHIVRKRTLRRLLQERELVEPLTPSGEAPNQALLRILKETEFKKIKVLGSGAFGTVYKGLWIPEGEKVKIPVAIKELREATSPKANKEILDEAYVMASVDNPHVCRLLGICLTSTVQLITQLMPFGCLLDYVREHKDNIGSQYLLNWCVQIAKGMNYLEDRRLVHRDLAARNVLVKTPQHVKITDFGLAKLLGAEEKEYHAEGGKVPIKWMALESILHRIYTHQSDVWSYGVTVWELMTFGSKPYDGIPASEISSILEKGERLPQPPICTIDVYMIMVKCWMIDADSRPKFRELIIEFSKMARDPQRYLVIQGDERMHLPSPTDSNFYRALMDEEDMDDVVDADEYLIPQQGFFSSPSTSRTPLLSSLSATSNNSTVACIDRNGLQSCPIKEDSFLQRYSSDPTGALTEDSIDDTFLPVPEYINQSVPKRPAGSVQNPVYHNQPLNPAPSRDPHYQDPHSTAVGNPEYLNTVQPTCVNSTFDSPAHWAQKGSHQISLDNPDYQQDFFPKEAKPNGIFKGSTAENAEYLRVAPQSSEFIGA
T2 sequence (O60674 whole entry): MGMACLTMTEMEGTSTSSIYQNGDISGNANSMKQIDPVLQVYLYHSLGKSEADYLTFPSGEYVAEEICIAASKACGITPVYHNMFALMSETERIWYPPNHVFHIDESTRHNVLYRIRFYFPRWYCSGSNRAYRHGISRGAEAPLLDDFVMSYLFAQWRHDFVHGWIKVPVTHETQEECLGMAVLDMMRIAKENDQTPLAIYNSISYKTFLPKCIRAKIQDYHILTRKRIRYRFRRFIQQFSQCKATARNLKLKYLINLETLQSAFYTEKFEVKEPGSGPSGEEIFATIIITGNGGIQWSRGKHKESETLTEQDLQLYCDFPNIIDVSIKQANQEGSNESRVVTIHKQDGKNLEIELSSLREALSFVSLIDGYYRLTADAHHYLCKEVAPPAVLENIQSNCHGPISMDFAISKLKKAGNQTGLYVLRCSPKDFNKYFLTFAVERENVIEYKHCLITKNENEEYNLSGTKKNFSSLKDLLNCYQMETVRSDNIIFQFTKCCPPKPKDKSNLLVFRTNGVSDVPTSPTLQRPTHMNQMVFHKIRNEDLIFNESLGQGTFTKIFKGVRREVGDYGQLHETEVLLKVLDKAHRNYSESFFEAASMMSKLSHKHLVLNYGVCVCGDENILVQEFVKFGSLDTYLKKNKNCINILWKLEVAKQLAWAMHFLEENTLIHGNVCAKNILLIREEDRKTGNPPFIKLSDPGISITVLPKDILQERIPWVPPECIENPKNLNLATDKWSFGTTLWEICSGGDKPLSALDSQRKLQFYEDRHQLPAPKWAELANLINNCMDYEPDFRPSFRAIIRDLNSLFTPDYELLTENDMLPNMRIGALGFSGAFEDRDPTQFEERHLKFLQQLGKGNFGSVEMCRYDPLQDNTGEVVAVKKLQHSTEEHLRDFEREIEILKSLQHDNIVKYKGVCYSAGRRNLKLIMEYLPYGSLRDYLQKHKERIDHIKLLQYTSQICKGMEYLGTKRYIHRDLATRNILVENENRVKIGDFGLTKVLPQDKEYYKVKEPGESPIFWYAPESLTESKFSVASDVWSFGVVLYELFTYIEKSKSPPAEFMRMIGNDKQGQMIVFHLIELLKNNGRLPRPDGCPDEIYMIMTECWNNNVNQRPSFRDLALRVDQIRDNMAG
T7 sequence (P08069 31-1367): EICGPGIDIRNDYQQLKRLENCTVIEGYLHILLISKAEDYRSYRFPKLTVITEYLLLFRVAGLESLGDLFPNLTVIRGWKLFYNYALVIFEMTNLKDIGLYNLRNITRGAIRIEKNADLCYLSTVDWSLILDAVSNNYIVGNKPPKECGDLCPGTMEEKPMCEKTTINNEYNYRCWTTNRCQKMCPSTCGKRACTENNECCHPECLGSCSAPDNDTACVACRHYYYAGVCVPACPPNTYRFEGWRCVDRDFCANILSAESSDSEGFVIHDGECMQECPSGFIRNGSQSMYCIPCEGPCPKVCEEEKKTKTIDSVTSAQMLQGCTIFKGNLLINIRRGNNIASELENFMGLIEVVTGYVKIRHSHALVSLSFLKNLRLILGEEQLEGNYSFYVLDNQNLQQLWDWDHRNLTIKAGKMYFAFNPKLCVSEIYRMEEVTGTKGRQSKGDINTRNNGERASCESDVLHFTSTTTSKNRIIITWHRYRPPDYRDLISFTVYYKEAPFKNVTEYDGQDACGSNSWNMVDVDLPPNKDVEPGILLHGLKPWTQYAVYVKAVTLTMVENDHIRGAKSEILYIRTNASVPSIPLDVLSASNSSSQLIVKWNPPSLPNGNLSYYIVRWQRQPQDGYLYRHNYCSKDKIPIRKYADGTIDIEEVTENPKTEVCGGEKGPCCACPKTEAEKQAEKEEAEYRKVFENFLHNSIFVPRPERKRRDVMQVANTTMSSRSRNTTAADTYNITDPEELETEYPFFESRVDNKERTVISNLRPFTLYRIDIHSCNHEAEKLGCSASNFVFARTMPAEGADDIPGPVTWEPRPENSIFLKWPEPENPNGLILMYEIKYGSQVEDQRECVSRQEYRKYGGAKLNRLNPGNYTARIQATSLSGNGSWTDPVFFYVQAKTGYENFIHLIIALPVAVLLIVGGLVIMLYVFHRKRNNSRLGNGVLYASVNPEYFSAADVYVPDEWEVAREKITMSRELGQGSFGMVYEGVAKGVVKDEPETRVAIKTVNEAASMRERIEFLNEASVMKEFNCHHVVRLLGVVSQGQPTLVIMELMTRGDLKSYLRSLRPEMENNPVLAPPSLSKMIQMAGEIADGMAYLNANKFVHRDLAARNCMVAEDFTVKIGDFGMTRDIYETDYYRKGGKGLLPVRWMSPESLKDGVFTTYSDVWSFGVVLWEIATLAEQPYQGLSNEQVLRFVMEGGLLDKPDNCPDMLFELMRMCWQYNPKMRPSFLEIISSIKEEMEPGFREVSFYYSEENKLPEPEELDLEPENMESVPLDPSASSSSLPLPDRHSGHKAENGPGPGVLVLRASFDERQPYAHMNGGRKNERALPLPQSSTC
T5 sequence (P09619 33-1106): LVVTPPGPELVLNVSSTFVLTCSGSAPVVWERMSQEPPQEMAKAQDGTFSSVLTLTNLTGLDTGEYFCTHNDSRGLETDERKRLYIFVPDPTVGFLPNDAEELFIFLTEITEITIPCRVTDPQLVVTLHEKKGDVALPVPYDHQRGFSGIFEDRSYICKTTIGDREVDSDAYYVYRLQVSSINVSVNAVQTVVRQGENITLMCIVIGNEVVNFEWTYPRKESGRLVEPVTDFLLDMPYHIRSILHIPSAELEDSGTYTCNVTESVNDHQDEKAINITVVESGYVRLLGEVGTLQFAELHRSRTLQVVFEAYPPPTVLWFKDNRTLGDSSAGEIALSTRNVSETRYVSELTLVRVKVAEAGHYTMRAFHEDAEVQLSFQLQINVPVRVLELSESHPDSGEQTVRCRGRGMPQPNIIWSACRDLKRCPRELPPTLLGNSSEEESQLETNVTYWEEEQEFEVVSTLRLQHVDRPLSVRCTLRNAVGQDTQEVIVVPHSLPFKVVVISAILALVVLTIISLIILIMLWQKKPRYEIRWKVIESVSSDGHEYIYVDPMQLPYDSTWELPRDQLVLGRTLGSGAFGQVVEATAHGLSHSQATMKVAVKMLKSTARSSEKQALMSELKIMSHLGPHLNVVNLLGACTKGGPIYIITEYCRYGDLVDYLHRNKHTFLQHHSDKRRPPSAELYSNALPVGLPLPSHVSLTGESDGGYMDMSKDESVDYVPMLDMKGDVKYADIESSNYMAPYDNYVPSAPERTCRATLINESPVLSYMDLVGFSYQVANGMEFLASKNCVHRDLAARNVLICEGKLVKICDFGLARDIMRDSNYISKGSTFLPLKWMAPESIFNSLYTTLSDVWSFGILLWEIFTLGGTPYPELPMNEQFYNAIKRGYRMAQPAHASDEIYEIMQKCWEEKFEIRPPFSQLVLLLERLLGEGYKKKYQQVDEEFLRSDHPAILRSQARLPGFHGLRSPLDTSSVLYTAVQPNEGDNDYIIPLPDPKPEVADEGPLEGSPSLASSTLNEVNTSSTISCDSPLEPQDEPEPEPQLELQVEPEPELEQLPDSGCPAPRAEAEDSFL

COc1cc(C=CC(=O)OCCCc2cc(OC)c3c(c2)C(COC(=O)C=Cc2ccc(O)c(OC)c2)C(c2ccc(O)c(OC)c2)O3)ccc1O (centres unmarked) [赤麻木脂素, 3-(4-Hydroxy-3-methoxyphenyl)propenoic acid 3-[2,3-dihydro-2-(4-hydroxy-3-methoxyphenyl)-3-[[[3-(4-hydroxy-3-methoxyphenyl)-1-oxo-2-propenyl]oxy]methyl]-7-methoxybenzofuran-5-yl]propyl ester]
剂量依赖性的抑制: inhibition of transcriptional activity of STAT3 transcription factor (luciferase) [1] | inhibition of transcriptional activity of STAT1 transcription factor (luciferase) [2]
抑制: inhibition of STAT3 phosphorylation (STAT3) | inhibition of STAT1 phosphorylation (STAT1) | inhibition of JAK phosphorylation (p-JAK1) (JAK1) | inhibition of JAK phosphorylation (p-JAK2) (JAK2) | inhibition of JAK phosphorylation (p-TYK2) (TYK2) | inhibition of IκBα phosphorylation (IκBα) | inhibition of IKK-α/β phosphorylation (IKK-α/β)
没有抑制作用: effect on phosphorylation of other tyrosine kinases (PDGFRα) (PDGFRα) | effect on phosphorylation of other tyrosine kinases (PDGFRβ) (PDGFRβ) | effect on phosphorylation of other tyrosine kinases (EGFR) (EGFR) | effect on phosphorylation of other tyrosine kinases (IGF1R) (IGF1R)
浓度依赖性的抑制: inhibition of NF-κB signalling pathway (NF-κB-dependent luciferase activity) [3]
